The source of these data is patent publication US10227337B2, “Evaluation probe for central nervous system permeability, evaluation method for central nervous system permeability, and screening method using an evaluation probe for central nervous system permeability” (CANON KABUSHIKI KAISHA, priority 2011, dated 2019).

The first series deals with cranial nerve tissue (brain) of juvenile zebrafish. Put plainly: Example 3: brain fluorescence of juvenile zebrafish exposed to compound (23) probe liquid with or without MK571 and FTC. Type of series: in vivo. To be noted: concluded from single versus combined MK571 and FTC. How it is done: A probe liquid 6 was obtained by changing the compound (8) used in the probe liquid 1 of Example 1 to the compound (23). Further, a probe liquid 7 was obtained by adding MK571 and FTC, each at 30 μM, as a transporter inhibitor.
4 mL of the probe liquid 6 and 7 and each of 20 juvenile zebrafish on 7 days post fertilization were each loaded into any well of a 6-well multiplate, and exposure was started. The zebrafish during exposure were each taken out of the well 60 minutes, 180 minutes and 360 minutes after the starting of the exposure, and in accordance with the same operation as in Example 1, fluorescence images of a cranial nerve tissue and a blood vessel on the zebrafish body side were captured and fluorescence intensities in the CNS tissue and the blood vessel were evaluated.
Consider `COc1ccc(N2c3ccc(/C=C4/SC(=S)N(CC(=O)O)C4=O)cc3C3CCCC32)cc1` (centres unmarked) [Compound 23], for which the “transport by transporters (substrate property)” value was “transported by both of MRP and BCRP”.

Tested on in the next series: not listed separately
Put plainly: Measurement of fluorescence characteristics of dye compounds. Type of series: physicochemical. Conditions: 5-μM solution in DMSO. The text has this:
5-μM solutions of Dye compounds 1 to 46 in DMSO were each prepared and measured for its excitation wavelength and fluorescence emission wavelength with an FL4500 fluorescence spectrometer manufactured by Hitachi High-Technologies Corporation.
Molecule `O=C(O)CCN1C(=O)/C(=C\c2cc(Br)c3c(c2)C2CCCC2N3c2ccc(Br)cc2)SC1=S` (centres unmarked) [Compound 1] yielded an Excitation wavelength λex of 474 nm and a Fluorescence wavelength λem of 590 nm.
For `COc1ccc(N2c3ccc(/C=C4/SC(=S)N(CCC(=O)O)C4=O)cc3C3CCCC32)cc1` (centres unmarked) [Compound 2] the same measures were 521 nm and 634 nm.
For `O=C(O)CCN1C(=O)/C(=C\c2ccc3c(c2)C2CCCC2N3Cc2ccccc2)SC1=S` (centres unmarked) [Compound 3] the same measures were 510 nm and 584 nm.
For the molecule `O=C(O)CCN1C(=O)/C(=C\c2ccc3c(c2)C2CCCC2N3c2ccccc2)SC1=S` (centres unmarked) [Compound 4], the Excitation wavelength λex came to 502 nm and the Fluorescence wavelength λem was found to be 604 nm.
For `COc1ccc2cc(N3c4ccc(/C=C5/SC(=S)N(CCC(=O)O)C5=O)cc4C4CCCC43)ccc2c1` (centres unmarked) [Compound 5] the same measures were 521 nm and 646 nm.
The corresponding values for `CN1c2ccc(/C=C3/SC(=S)N(CCC(=O)O)C3=O)cc2C2CCCC21` (centres unmarked) [Compound 6] are 517 nm and 590 nm.
Regarding `CCN1c2ccc(/C=C3/SC(=S)N(CCC(=O)O)C3=O)cc2CC1C` (centres unmarked) [Compound 7], the Excitation wavelength λex stood at 509 nm and the Fluorescence wavelength λem was 593 nm.
The corresponding values for `CCN1CCc2cc(/C=C3/SC(=S)N(CCC(=O)O)C3=O)ccc21` [Compound 8] are 510 nm and 597 nm.
The corresponding values for `CCn1c2ccccc2c2cc(/C=C3/SC(=S)N(CCC(=O)O)C3=O)ccc21` [Compound 9] are 452 nm and 540 nm.
As for `CCCN1c2ccc(/C=C3/SC(=S)N(CCC(=O)O)C3=O)cc2C2CCCC21` (centres unmarked) [Compound 10], the Excitation wavelength λex was 519 nm and the Fluorescence wavelength λem was 592 nm.
In turn, `CCN1c2ccc(/C=C/C=C3/SC(=S)N(CCC(=O)O)C3=O)cc2C2CCCC21` (centres unmarked) [Compound 11] showed an Excitation wavelength λex of 564 nm and a Fluorescence wavelength λem of 671 nm.
`CSc1ccc(N2c3ccc(/C=C4/SC(=S)N(CCC(=O)O)C4=O)cc3C3CCCC32)cc1` (centres unmarked) [Compound 12] yielded an Excitation wavelength λex of 518 nm and a Fluorescence wavelength λem of 647 nm.
For `CCN1c2ccc(/C=C3/SC(=S)N(CCC(=O)O)C3=O)cc2C2CCCC21` (centres unmarked) [Compound 13] the same measures were 513 nm and 587 nm.
The corresponding values for `CCN1c2ccc(/C=C3/SC(=S)N(CC(=O)O)C3=O)cc2C2CCCC21` (centres unmarked) [Compound 14] are 507 nm and 585 nm.
On to `CSc1ccc(N2c3ccc(/C=C4/SC(=S)N(CC(=O)O)C4=O)cc3C3CCCC32)cc1` (centres unmarked) [Compound 15], for which the Excitation wavelength λex was 517 nm and the Fluorescence wavelength λem was 638 nm.
In the case of `CCN1c2ccc(/C=C3/SC(=S)N(CC(=O)O)C3=O)cc2CC1C` (centres unmarked) [Compound 16], the Excitation wavelength λex was determined as 510 nm and the Fluorescence wavelength λem amounted to 590 nm.
For `O=C(O)CN1C(=O)/C(=C\c2ccc3c(c2)C2CCCC2N3c2ccccc2)SC1=S` (centres unmarked) [Compound 17] the same measures were 508 nm and 604 nm.
For `CSc1cccc(N2c3ccc(/C=C4/SC(=S)N(CC(=O)O)C4=O)cc3C3CCCC32)c1` (centres unmarked) [Compound 18] the same measures were 509 nm and 604 nm.
The corresponding values for `CCN1CCc2cc(/C=C3/SC(=S)N(CC(=O)O)C3=O)ccc21` [Compound 19] are 511 nm and 594 nm.
For `O=C(O)CN1C(=O)/C(=C\c2ccc3c(c2)C2CCCC2N3Cc2ccccc2)SC1=S` (centres unmarked) [Compound 20], the Excitation wavelength λex was determined as 506 nm and the Fluorescence wavelength λem amounted to 581 nm.
The corresponding values for `O=C(O)CN1C(=O)/C(=C\c2cc(Br)c3c(c2)C2CCCC2N3c2ccc(Br)cc2)SC1=S` (centres unmarked) [Compound 21] are 476 nm and 580 nm.
For the molecule `O=C(O)CN1C(=O)/C(=C\c2ccc3c(c2)CCN3c2ccccc2)SC1=S` [Compound 22], the Excitation wavelength λex was 505 nm and the Fluorescence wavelength λem was 612 nm.
The corresponding values for `COc1ccc(N2c3ccc(/C=C4/SC(=S)N(CC(=O)O)C4=O)cc3C3CCCC32)cc1` (centres unmarked) [Compound 23] are 518 nm and 637 nm.
The corresponding values for `O=C(O)CN1C(=O)/C(=C\c2cc(Br)c3c(c2)C2CCCC2N3Cc2ccccc2)SC1=S` (centres unmarked) [Compound 24] are 486 nm and 578 nm.
For `CCn1c2ccccc2c2cc(/C=C3/SC(=S)N(CC(=O)O)C3=O)ccc21` [Compound 25] the same measures were 453 nm and 536 nm.
`COc1ccc2cc(N3c4ccc(/C=C5/SC(=S)N(CC(=O)O)C5=O)cc4C4CCCC43)ccc2c1` (centres unmarked) [Compound 26] came in with an Excitation wavelength λex of 525 nm and a Fluorescence wavelength λem of 646 nm.
For `CCOC(=O)CCN1C(=O)/C(=C\c2ccc3c(c2)C2CCCC2N3CC)SC1=S` (centres unmarked) [Compound 27] the same measures were 518 nm and 590 nm.
As for `CCN1C(=O)/C(=c2\s/c(=C/c3ccc4c(c3)C3CCCC3N4c3ccccc3)c(=O)n2CC(=O)O)SC1=S` (centres unmarked) [Compound 29], the Excitation wavelength λex amounted to 525 nm and the Fluorescence wavelength λem was 610 nm.
For `CCN1C(=O)/C(=c2\s/c(=C/c3ccc4c(c3)C3CCCC3N4c3ccc(OC)cc3)c(=O)n2CC(=O)O)SC1=S` (centres unmarked) [Compound 31] the same measures were 550 nm and 650 nm.
Consider `CCN1C(=O)/C(=c2\s/c(=C/c3ccc4c(c3)C3CCCC3N4c3ccc(SC)cc3)c(=O)n2CC(=O)O)SC1=S` (centres unmarked) [Compound 32], for which the Excitation wavelength λex was determined as 544 nm and the Fluorescence wavelength λem amounted to 658 nm.
The corresponding values for `CCN1C(=O)/C(=c2\s/c(=C/c3ccc4c(c3)C3CCCC3N4c3cccc(SC)c3)c(=O)n2CC(=O)O)SC1=S` (centres unmarked) [Compound 33] are 536 nm and 632 nm.
As to `CCN1C(=O)/C(=c2\s/c(=C/c3ccc4c(c3)C3CCCC3N4c3ccc4cc(OC)ccc4c3)c(=O)n2CC(=O)O)SC1=S` (centres unmarked) [Compound 34], the Excitation wavelength λex is 543 nm and the Fluorescence wavelength λem was 649 nm.
For `CCN1C(=O)/C(=c2\s/c(=C/c3cc(Br)c4c(c3)C3CCCC3N4c3ccc(Br)cc3)c(=O)n2CC(=O)O)SC1=S` (centres unmarked) [Compound 35] the same measures were 520 nm and 617 nm.
The corresponding values for `CCN1C(=O)/C(=c2\s/c(=C/c3ccc4c(c3)CC(C)N4CC)c(=O)n2CC(=O)O)SC1=S` (centres unmarked) [Compound 36] are 541 nm and 640 nm.
For `CCN1C(=O)/C(=c2\s/c(=C/c3cc(Br)c4c(c3)C3CCCC3N4Cc3ccccc3)c(=O)n2CC(=O)O)SC1=S` (centres unmarked) [Compound 37], the Excitation wavelength λex amounted to 525 nm and the Fluorescence wavelength λem amounted to 616 nm.
The corresponding values for `CCN1C(=O)/C(=c2\s/c(=C/c3ccc4c(c3)CCN4CC)c(=O)n2CC(=O)O)SC1=S` [Compound 38] are 541 nm and 642 nm.
For `CCN1C(=O)/C(=c2\s/c(=C/c3ccc4c(c3)CCN4c3ccccc3)c(=O)n2CC(=O)O)SC1=S` [Compound 39] the same measures were 536 nm and 640 nm.
`CCN1C(=O)/C(=c2\s/c(=C/c3ccc4c(c3)c3ccccc3n4CC)c(=O)n2CC(=O)O)SC1=S` [Compound 40] yielded an Excitation wavelength λex of 494 nm and a Fluorescence wavelength λem of 551 nm.
For `C=CCN1C(=O)/C(=c2\s/c(=C/c3ccc4c(c3)C3CCCC3N4c3ccc(OC)cc3)c(=O)n2CC(=O)O)SC1=S` (centres unmarked) [Compound 41] the same measures were 515 nm and 624 nm.
For `C=CCN1C(=O)/C(=c2\s/c(=C/c3ccc4c(c3)C3CCCC3N4c3ccccc3)c(=O)n2CC(=O)O)SC1=S` (centres unmarked) [Compound 42] the same measures were 543 nm and 636 nm.
The molecule `CCCCCCCCN1C(=O)/C(=c2\s/c(=C/c3ccc4c(c3)C3CCCC3N4c3ccc(OC)cc3)c(=O)n2CC(=O)OCC)SC1=S` (centres unmarked) [Compound 43] returned an Excitation wavelength λex of 552 nm and a Fluorescence wavelength λem of 668 nm.
The corresponding values for `CCCCCN1C(=O)/C(=c2\s/c(=C/c3ccc4c(c3)C3CCCC3N4c3ccc(OC)cc3)c(=O)n2CC(=O)OCC)SC1=S` (centres unmarked) [Compound 44] are 548 nm and 656 nm.
The corresponding values for `CCN1c2ccc(/C=C3/SC(=S)N(CCCCCC(=O)O)C3=O)cc2C2CCCC21` (centres unmarked) [Compound 45] are 513 nm and 589 nm.
Molecule `CCN1c2ccc(/C=C3/SC(=S)N(CCCCCCCCCCC(=O)O)C3=O)cc2C2CCCC21` (centres unmarked) [Compound 46] gave an Excitation wavelength λex of 516 nm and a Fluorescence wavelength λem of 585 nm.
